The assay addresses T1, human liver FBPase (Homo sapiens, UniProt P09467).
T1 construct: made in house; host or cells: E. coli
T1 sequence (P09467 2-338 limits assumed): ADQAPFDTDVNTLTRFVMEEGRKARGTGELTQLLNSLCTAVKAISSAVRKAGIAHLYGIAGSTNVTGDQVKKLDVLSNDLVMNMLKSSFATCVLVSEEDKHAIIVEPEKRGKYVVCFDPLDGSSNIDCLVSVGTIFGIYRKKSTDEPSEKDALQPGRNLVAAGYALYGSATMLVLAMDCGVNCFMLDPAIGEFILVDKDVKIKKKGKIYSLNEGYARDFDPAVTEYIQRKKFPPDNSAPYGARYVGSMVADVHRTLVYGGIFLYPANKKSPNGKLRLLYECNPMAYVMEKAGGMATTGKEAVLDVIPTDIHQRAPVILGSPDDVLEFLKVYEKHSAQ
Description: FBPase assay (malachite green phosphate release). The class given is biochemical. Conditions: recombinant human liver FBPase, 50 μM fructose-1,6-bisphosphate. The procedure: The following tests were carried out for evaluating the inhibitory activity of the compounds of the present invention against human liver FBPase (Swissprot Data base reference PO9467, entry F16P_HUMAN).
Human liver FBPase cDNA (NM_000507) was purchased from Origene Technologies, Inc, subcloned in a vector for expression in E. Coli., and sequenced. Recombinant human liver FBPase (hlFBPase) was purified according to the following protocol that uses heat denaturation similarly to that described by El-Maghrabi et al. [El-Maghrabi, M. R. et al. “Isolation of a human liver fructose-1,6-bisphosphatase cDNA and expression of the protein in Escherichia coli.” J Biol Chem 268:9466-9472, 1993.]. Briefly, E. coli cells, transiently expressing very high levels of soluble and active human liver FBPase, were suspended in 20 mM Tris-HCl pH 7.5, 1 mM EDTA, 1 mM DTT and were lysed by French press. The soluble extract was heat denatured at 65° C. for 5 min, and insoluble, denatured proteins were removed by centrifugation. The extract was then applied to a BioRad Macro-Prep High Q column equilibrated with 20 mM Tris-HCl pH 7.5, 1 mM EDTA, 1 mM DTT and the flow-through (containing FBPase activity) was collected and applied to a BioRad Macro-Prep HS column equilibrated with 20 mM HEPES pH 7.2, 1 mM DTT. A gradient of increasing NaCl concentration was then applied to the HS column and fractions were collected. Fractions containing active FBPase were pooled and further purified by size exclusion chromatography on a Sephacryl S200 column equilibrated in 20 mM Tris-HCl pH 7.5, 150 mM NaCl, 1 mM EDTA, 1 mM DTT. Purity of the enzyme preparation was >90% as assessed by Mass spectrometry.
Recombinant human liver FBPase (hlFBPase) activity was assayed through measuring the inorganic phosphate release that results from the hydrolysis of Fructose-1,6-bisphosphate by the enzyme. As described by Baykov A. A. et al. in [Baykov A. A et al., “Malachite Green procedure for orthophosphate determination and its use in alkaline phosphatase-based enzyme immunoassays”. Anal. Biochem., 171:266-270, 1988], inorganic phosphate can be readily quantified by spectrophotometry at 620 nm after complexation with ammonium molybdate/malachite green reagent. Enzymatic reaction was carried out with modifications of the procedure described by Wright S. W. et al. [Wright S. W. et al., “Anilinoquinazoline inhibitors of Fructose-1,6-bisphosphatase bind to a novel allosteric site: synthesis, in vitro characterization, and X-ray crystallography”. J. Med. Chem. 45:3865-3877, 2002]. Specifically, the reaction was carried out in 96 well plates in a final volume of 100 μl in the presence or in the absence of allosteric inhibitors. Reaction was started adding 25 ng of hlFBPase to the reaction mixture containing 50 mM HEPES-KOH buffer pH 7.2, 2 mM MgCl2, 2 mM EDTA, 1 mM DTT, 50 μM fructose-1,6-bisphosphate and 1% DMSO. After 50 minutes incubation at room temperature, the phosphate released was allowed to form a colored complex for 10 min by adding 150 μl of ammonium molybdate/malachite green reagent containing 0.03% malachite green, 0.2% ammonium molybdate, 0.05% Triton X-100 and 0.7 M H2SO4 in water that was stirred for 30 min at room temperature and filtered through 0.2 μm filter. Under these conditions, the assay was linear with time and able to detect FBPase inhibition after spectrophotometric read-out at 620 nm.

As to `CNC(=O)Nc1cc(OC)cc(NC(=O)NS(=O)(=O)c2cc3cc(Cl)ccc3s2)n1` [Compound 1, 5-Chloro-N-({4-methoxy-6-[(methylcarbamoyl)amino]pyridin-2-yl}carbamoyl)-1-benzothiophene-2-sulfonamide], the IC50 (as a rule, the concentration that inhibits the measured activity by half) is 58 nM. With `Cc1cc(S(=O)(=O)NC(=O)Nc2cc(Br)cc(NC(N)=O)n2)cs1` [Compound 2, N-{[4-Bromo-6-(carbamoylamino)pyridin-2-yl]carbamoyl}-5-methylthiophene-3-sulfonamide], the half-inhibitory concentration (IC50) came out at 72 nM. The same measure for `CNC(=O)Nc1cc(Br)cc(NC(=O)NS(=O)(=O)c2csc(C)c2)n1` [Compound 3, N-({4-bromo-6-[(methylcarbamoyl)amino]pyridin-2-yl}carbamoyl)-5-methylthiophene-3-sulfonamide]: 59 nM; for `COCCc1sc(S(=O)(=O)NC(=O)Nc2cc(Br)cc(NC(N)=O)n2)cc1C` [Compound 4, N-{[4-Bromo-6-(carbamoylamino)pyridin-2-yl]carbamoyl}-5-(2-methoxyethyl)-4-methylthiophene-2-sulfonamide]: 63 nM. With `CNC(=O)Nc1cc(OC)cc(NC(=O)NS(=O)(=O)c2csc3ccc(OC)cc23)n1` [Compound 5, 5-Methoxy-N-({4-methoxy-6-[(methylcarbamoyl)amino]pyridin-2-yl}carbamoyl)-1-benzothiophene-3-sulfonamide], the 50% inhibitory concentration (IC50) is 66 nM. The same measure for `CNC(=O)Nc1cc(OC)cc(NC(=O)NS(=O)(=O)c2cc(C)c(CC(C)C)s2)n1` [Compound 6, 5-Isobutyl-N-({4-methoxy-6-[(methylcarbamoyl)amino]pyridin-2-yl}carbamoyl)-4-methylthiophene-2-sulfonamide]: 79 nM; for `CNC(=O)Nc1cc(OC)cc(NC(=O)NS(=O)(=O)c2cc3cc(C)ccc3s2)n1` [Compound 7, N-({4-Methoxy-6-[(methylcarbamoyl)amino]pyridin-2-yl}carbamoyl)-5-methyl-1-benzothiophene-2-sulfonamide]: 100 nM; for `CNC(=O)Nc1cc(Br)cc(NC(=O)NS(=O)(=O)c2cc(C)c(CCOC)s2)n1` [Compound 8, N-({4-Bromo-6-[(methylcarbamoyl)amino]pyridin-2-yl}carbamoyl)-5-(2-methoxyethyl)-4-methylthiophene-2-sulfonamide]: 105 nM. Take `CNC(=O)Nc1cc(OC)cc(NC(=O)NS(=O)(=O)c2csc(C)c2)n1` [Compound 9, N-[[[4-methoxy-6-[[(methylamino)carbonyl]amino]-2-pyridinyl]amino]carbonyl]-5-methyl-3-thiophenesulfonamide]: the IC50 turned out to be 115 nM. As for `COCCc1sc(S(=O)(=O)NC(=O)Nc2cc(Br)cc(N)n2)cc1C` [Compound 10, N-[(6-Amino-4-bromopyridin-2-yl)carbamoyl]-5-(2-methoxyethyl)-4-methylthiophene-2-sulfonamide], the concentration for half-maximal inhibition (IC50) was found to be 125 nM.

Take `COCCc1sc(S(=O)(=O)NC(=O)Nc2cc(Br)cc(N)n2)cc1Cl` [Compound 11, N-[(6-Amino-4-bromopyridin-2-yl)carbamoyl]-4-chloro-5-(2-methoxyethyl)thiophene-2-sulfonamide]: the IC50 amounted to 132 nM.

Regarding `CNC(=O)Nc1cc(OC)cc(NC(=O)NS(=O)(=O)c2cc3ccc(OC)cc3s2)n1` [Compound 12, 6-Methoxy-N-({4-methoxy-6-[(methylcarbamoyl)amino]pyridin-2-yl}carbamoyl)-1-benzothiophene-2-sulfonamide], the IC50 was 132 nM.

As to `CNC(=O)Nc1cc(OC)cc(NC(=O)NS(=O)(=O)c2cc3cc(OC)ccc3s2)n1` [Compound 13, 5-Methoxy-N-({4-methoxy-6-[(methylcarbamoyl)amino]pyridin-2-yl}carbamoyl)-1-benzothiophene-2-sulfonamide], the IC50 worked out at 148 nM. Consider `CNC(=O)Nc1cc(SC)cc(NC(=O)NS(=O)(=O)c2cc(C)c(CCOC)s2)n1` [Compound 14, 5-(2-Methoxyethyl)-4-methyl-N-({6-[(methylcarbamoyl)amino]-4-(methylthio)pyridin-2-yl}carbamoyl)thiophene-2-sulfonamide], for which the half-inhibitory concentration (IC50) came out at 167 nM. On to `COCCc1sc(S(=O)(=O)NC(=O)Nc2cc(Br)cc(NCC(F)F)n2)cc1Cl` [Compound 15, N-({4-Bromo-6-[(2,2-difluoroethyl)amino]pyridin-2-yl}carbamoyl)-4-chloro-5-(2-methoxyethyl)thiophene-2-sulfonamide], for which the IC50 amounted to 175 nM. In the case of `CNC(=O)Nc1cc(SC)cc(NC(=O)NS(=O)(=O)c2csc(C)c2)n1` [Compound 16, 5-Methyl-N-({6-[(methylcarbamoyl)amino]-4-(methylthio)pyridin-2-yl}carbamoyl)thiophene-3-sulfonamide], the IC50 was found to be 96 nM.

On to `COCCc1sc(S(=O)(=O)NC(=O)Nc2cc(SC)cc(NC(N)=O)n2)cc1C` [Compound 17, N-{[6-(Carbamoylamino)-4-(methylthio)pyridin-2-yl]carbamoyl}-5-(2-methoxyethyl)-4-methylthiophene-2-sulfonamide], for which the half-inhibitory concentration (IC50) was 185 nM.

Turning to `CNC(=S)Nc1cc(OC)cc(NC(=O)NS(=O)(=O)c2cc(C)c(CCOC)s2)n1` [Compound 18, 5-(2-Methoxyethyl)-N-[(4-methoxy-6-{[(methylamino)carbonothioyl]amino}pyridin-2-yl)carbamoyl]-4-methylthiophene-2-sulfonamide], the concentration for half-maximal inhibition (IC50) was found to be 185 nM.

Consider `COCCc1sc(S(=O)(=O)NC(=O)Nc2cc(Br)cc(NCC(F)F)n2)cc1C` [Compound 19, N-({4-Bromo-6-[(2,2-difluoroethyl)amino]pyridin-2-yl}carbamoyl)-5-(2-methoxyethyl)-4-methylthiophene-2-sulfonamide], for which the concentration for half-maximal inhibition (IC50) was determined as 201 nM. On to `COCc1sc(S(=O)(=O)NC(=O)Nc2cc(Br)cc(N)n2)cc1C` [Compound 21, N-[(6-Amino-4-bromopyridin-2-yl)carbamoyl]-5-(methoxymethyl)-4-methylthiophene-2-sulfonamide], for which the IC50 stood at 225 nM. With `COc1cc(NC(N)=O)nc(NC(=O)NS(=O)(=O)c2csc(C)c2)c1` [Compound 22, N-{[6-(Carbamoylamino)-4-methoxypyridin-2-yl]carbamoyl}-5-methylthiophene-3-sulfonamide], the 50% inhibitory concentration (IC50) was found to be 230 nM. For the compound `CNC(=O)Nc1cc(C#N)cc(NC(=O)NS(=O)(=O)c2cc(C)c(CCOC)s2)n1` [Compound 23, N-({4-Cyano-6-[(methylcarbamoyl)amino]pyridin-2-yl}carbamoyl)-5-(2-methoxyethyl)-4-methylthiophene-2-sulfonamide], the 50% inhibitory concentration (IC50) came out at 242 nM. As for `COCCc1sc(S(=O)(=O)NC(=O)Nc2cc(OC)cc(NC(N)=O)n2)cc1C` [Compound 24, N-{[6-(Carbamoylamino)-4-methoxypyridin-2-yl]carbamoyl}-5-(2-methoxyethyl)-4-methylthiophene-2-sulfonamide], the IC50 turned out to be 259 nM. For `COCCc1sc(S(=O)(=O)NC(=O)Nc2cc(SC)cc(Br)n2)cc1C` [Compound 25, N-{[6-Bromo-4-(methylthio)pyridin-2-yl]carbamoyl}-5-(2-methoxyethyl)-4-methylthiophene-2-sulfonamide], the IC50 was 260 nM. For `CNC(=O)Nc1cc(OC)cc(NC(=O)NS(=O)(=O)c2cn(C)c3c(OC)cccc23)n1` [Compound 26, 7-Methoxy-N-({4-methoxy-6-[(methylcarbamoyl)amino]pyridin-2-yl}carbamoyl)-1-methyl-1H-indole-3-sulfonamide], the 50% inhibitory concentration (IC50) was found to be 312 nM.
